Assay results from patent US9359298B2, “Cajanine structure analogous compound, preparation method and use” (INSTITUTE OF MEDICINAL BIOTECHNOLOGY, CHINESE ACADEMY OF …, priority 2011, dated 2016).
≈ marks a conversion by molar mass, not a printed value.

What was measured:
Type in all cases: cell-based
Coxsackie virus B6 = test: Coxsackie virus activity assay (CPE in Vero cells); conditions: Vero, read-out: COX-B6 IC50, Vero cells, about 100TCID50, CPE, Reed-Muench
HIV-1 III B virus = test: Anti-HIV activity assay (P24 antigen in MT-4 cells); conditions: for IC50: Human immunodeficiency virus 1, MT4, 96 h, MT-4 cells, HIV-1 III B 100TCID50, 96 h, P24 antigen, read-out: HIV IC50; for anti-HIV viral activity: statement in words
HCV = test: Anti-hepatitis C virus (HCV) activity assay (HCV RNA in Huh7.5 cells); conditions: for EC50: Hepatitis C virus, Huh7.5, 72 h, Huh7.5 cells, 72 h, HCV RNA by RT-PCR, Reed-Muench, read-out: HCV EC50; for anti-HCV viral activity: statement in words
Procedure: Inoculate Huh7.5 cells into 96-well plates to a density of 3×10^4 cells/cm^2, culture for 24h, infect the cells with 45 IU/cell HCV supernatant, meanwhile, add drug solutions or solvent control for treatment.

PC12 cells [1] = test: Neuroprotective activity assay, serum-deprived injury to PC12 cells (MTT); conditions: for viability at 10 µM: Rattus norvegicus, PC-12, 48 h, 10 μM test compound, 48 h, Control 100.0 ± 9.2, Model 69.3 ± 4.1, read-out: serum-deprived (surviving PC12 cells, MTT 570 nm); for protective effect on serum-deprived injury to PC12 cells: statement in words
Procedure, shortened: (§1)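 Survival measured as MTT absorbance at 570 nm after 4 h dye uptake. Compounds (10 μM) were co-applied for 48 h to PC12 cells deprived of serum or exposed to 4 μM rotenone, following 24 h seeding on poly-lysine.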

[2] = tested on: Influenza A virus (hanfang359/95); test: Determination of anti-influenza virus activity (CPE in MDCK cells); conditions: for IC50: Influenza A virus, MDCK, 36 h; for anti-influenza virus activities compared with the lead compound cajanine: statement in words
PC12 cells [3] = test: Neuroprotective activity assay, rotenone injury to PC12 cells (MTT); conditions: for viability at 10 µM: Rattus norvegicus, PC-12, 48 h, 10 μM test compound, 4 μM rotenone, 48 h, Control 100.0 ± 8.9, Model 73.2 ± 7.8, read-out: rotenone (surviving PC12 cells, MTT 570 nm); for protective effect on rotenone injury to PC12 cells: statement in words
Procedure, shortened: as §1

SMILES | IC50 (Coxsackie virus B6) | IC50 (HIV-1 III B virus) | anti-HIV viral activity (HIV-1 III B virus) | EC50 (HCV) | anti-HCV viral activity (HCV) | viability at 10 µM (PC12 cells [1]) | IC50 [2] | anti-influenza virus activities compared with the lead compound cajanine [2] | viability at 10 µM (PC12 cells [3]) | protective effect on serum-deprived injury to PC12 cells (PC12 cells [1]) | protective effect on rotenone injury to PC12 cells (PC12 cells [3])
COc1cc(/C=C/c2ccccc2)c(C(=O)O)c(OC(=O)C(=O)O)c1CC=C(C)C [Compound 31b, 2-carboxyformyloxy-3-isopentenyl-4-methoxy-6-[(E)-styryl]benzoic acid] | 1.21 µg/mL (≈ 2.95 µM) | 2.8 µg/mL (≈ 6.82 µM) | stronger anti-HIV, HCV viral activities | 0.99 µg/mL (≈ 2.41 µM) | stronger anti-HIV, HCV viral activities | 88.6 ± 2.6% | 0.54 µg/mL (≈ 1.32 µM) | significantly stronger than the lead compound cajanine | 80.5 ± 6.4% |  | 
COC(=O)c1c(/C=C/c2ccc(OC(C)=O)cc2)cc(OC)c(CC=C(C)C)c1O [Compound 8q, methyl 2-hydroxy-3-isopentenyl-4′-methoxy-6-[(E)-4-acetoxystyryl]benzoate] | 5.23 µg/mL (≈ 12.7 µM) | 2.1 µg/mL (≈ 5.12 µM) |  | 7.63 µg/mL (≈ 18.6 µM) |  | 79.8 ± 5.8% | 8.23 µg/mL (≈ 20.1 µM) |  | 80.5 ± 6.5% | the strongest activities | the strongest activities
COc1cc(/C=C/c2ccccc2)c(C(=O)O)c(OC(=O)c2cccnc2)c1CC=C(C)C [Compound 24k, 2-(pyridyl-3-formylox)-3-isopentenyl-4-methoxy-6-[(E)-styryl]benzoic acid] | 1.36 µg/mL (≈ 3.07 µM) | 2.17 µg/mL (≈ 4.89 µM) |  | 4.87 µg/mL (≈ 11 µM) |  | 89.6 ± 2.3% | 3.55 µg/mL (≈ 8 µM) |  | 85.6 ± 2.1% | the strongest activities | the strongest activities
COc1cc(/C=C/c2ccccc2Cl)c(C(=O)O)c(O)c1CC=C(C)C [Compound 1b, 2-hydroxy-3-isopentenyl-4-methoxy-6-[(E)-2-chlorostyryl]benzoic acid] | > 1.03 µg/mL | 1.22 µg/mL (≈ 3.27 µM) | stronger anti-HIV, HCV viral activities | 0.67 µg/mL (≈ 1.8 µM) | stronger anti-HIV, HCV viral activities | 15.7 ± 0.3% | > 18.5 µg/mL |  | 68.2 ± 8% |  | 
COc1ccc(/C=C/c2cc(OC)c(CC=C(C)C)c(O)c2C(=O)O)cc1 [Compound 1c] | 1.6 µg/mL (≈ 4.34 µM) | 1.64 µg/mL (≈ 4.45 µM) | stronger anti-HIV, HCV viral activities | 2.69 µg/mL (≈ 7.3 µM) | stronger anti-HIV, HCV viral activities | 16.1 ± 0.7% | > 2.06 µg/mL |  | 77.2 ± 0.6% |  | 
COc1cc(/C=C/c2cccc(C)c2)cc(O)c1CC=C(C)C [Compound 10f, 2-isopentenyl-3-methoxy-5-[(E)-3′-methylstyryl]phenol] | 1.26 µg/mL (≈ 4.09 µM) | 0.46 µg/mL (≈ 1.49 µM) |  | 0.87 µg/mL (≈ 2.82 µM) |  | 74.5 ± 6.5% | 0.89 µg/mL (≈ 2.89 µM) | significantly stronger than the lead compound cajanine | 76.5 ± 8% |  | 
COc1ccc(/C=C/c2cc(O)c(CC=C(C)C)c(OC)c2)cc1 [Compound 10c, 2-isopentenyl-3-methoxy-5-[(E)-4′-methoxystyryl]phenol] | 2.35 µg/mL (≈ 7.24 µM) | 0.35 µg/mL (≈ 1.08 µM) |  | 7.17 µg/mL (≈ 22.1 µM) |  | 81.6 ± 2.6% | > 6.17 µg/mL |  | 80.3 ± 6.2% | the strongest activities | the strongest activities
COc1cc(/C=C/c2cccc(O)n2)c(C(=O)O)c(O)c1CC=C(C)C [1c′, 2-hydroxy-3-isopentenyl-4-methoxy-6-[(E)-2-(6-hydroxypyrid-2-yl)ethenyl]benzoic acid] | 2.56 µg/mL (≈ 7.2 µM) | 1.61 µg/mL (≈ 4.53 µM) |  | 1.3 µg/mL (≈ 3.66 µM) |  | 85.9 ± 4.7% | 1.34 µg/mL (≈ 3.77 µM) |  | 85.6 ± 3.8% |  | 
Oc1cc(O)cc(/C=C/Cc2ccccc2)c1 [Compound 21b, 1,3-dihydroxy-5-[(E)-3-phenylpropen-1-yl]benzene] | 3.26 µg/mL (≈ 14.4 µM) | 0.88 µg/mL (≈ 3.89 µM) |  | 1.47 µg/mL (≈ 6.5 µM) |  | 74.6 ± 3.5% | 2.54 µg/mL (≈ 11.2 µM) |  | 78.9 ± 6.8% |  | 
